Measured values from US10259810B2, “N-sulfonylated pyrazolo[3,4-b]pyridin-6-carboxamides and method of use” (AbbVie S.à.r.l., priority 2015, dated 2019).

Key:
ΔF508-CFTR [1] = biological target: T1, ΔF508-CFTR (Homo sapiens, UniProt P13569, DEL508-508); assay: CFTR cell surface levels using HRP-tagged ΔF508-CFTR expressing CFBE cells, in the presence of a co-corrector; format: cell-based; settings: HRP-tagged ΔF508-CFTR CFBE cells, in the presence of 3 μM co-corrector; for EC50: read-out: EC50
T1 construct: host or cells: CFBE41o-, doxycycline-inducible
Method in brief: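 Chemiluminescent read-out of surface HRP (15 min, dark) after PBS washes. Activity is normalized as 100×(sample−DMSO)/(3 μM co-corrector alone−DMSO).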

ΔF508-CFTR [2] = biological target: T1, ΔF508-CFTR; assay: CFTR cell surface levels using HRP-tagged ΔF508-CFTR expressing CFBE cells, intrinsic corrector capacity; format: cell-based; parameters: % Activation: concentration or dose not given beside the values; settings: HRP-tagged ΔF508-CFTR expressing CFBE41o- cells, compound alone (intrinsic corrector capacity), 20 hours at 33° C.; for EC50: read-out: EC50
Method in brief: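 Read-out: chemiluminescent HRP activity of ECL4-HRP-tagged ΔF508-CFTR at the cell surface, 15 min substrate in dark. Normalized as 100×(sample−DMSO)/(positive control−DMSO).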

T1 sequence (P13569 with tags, fused parts or gaps DEL508-508): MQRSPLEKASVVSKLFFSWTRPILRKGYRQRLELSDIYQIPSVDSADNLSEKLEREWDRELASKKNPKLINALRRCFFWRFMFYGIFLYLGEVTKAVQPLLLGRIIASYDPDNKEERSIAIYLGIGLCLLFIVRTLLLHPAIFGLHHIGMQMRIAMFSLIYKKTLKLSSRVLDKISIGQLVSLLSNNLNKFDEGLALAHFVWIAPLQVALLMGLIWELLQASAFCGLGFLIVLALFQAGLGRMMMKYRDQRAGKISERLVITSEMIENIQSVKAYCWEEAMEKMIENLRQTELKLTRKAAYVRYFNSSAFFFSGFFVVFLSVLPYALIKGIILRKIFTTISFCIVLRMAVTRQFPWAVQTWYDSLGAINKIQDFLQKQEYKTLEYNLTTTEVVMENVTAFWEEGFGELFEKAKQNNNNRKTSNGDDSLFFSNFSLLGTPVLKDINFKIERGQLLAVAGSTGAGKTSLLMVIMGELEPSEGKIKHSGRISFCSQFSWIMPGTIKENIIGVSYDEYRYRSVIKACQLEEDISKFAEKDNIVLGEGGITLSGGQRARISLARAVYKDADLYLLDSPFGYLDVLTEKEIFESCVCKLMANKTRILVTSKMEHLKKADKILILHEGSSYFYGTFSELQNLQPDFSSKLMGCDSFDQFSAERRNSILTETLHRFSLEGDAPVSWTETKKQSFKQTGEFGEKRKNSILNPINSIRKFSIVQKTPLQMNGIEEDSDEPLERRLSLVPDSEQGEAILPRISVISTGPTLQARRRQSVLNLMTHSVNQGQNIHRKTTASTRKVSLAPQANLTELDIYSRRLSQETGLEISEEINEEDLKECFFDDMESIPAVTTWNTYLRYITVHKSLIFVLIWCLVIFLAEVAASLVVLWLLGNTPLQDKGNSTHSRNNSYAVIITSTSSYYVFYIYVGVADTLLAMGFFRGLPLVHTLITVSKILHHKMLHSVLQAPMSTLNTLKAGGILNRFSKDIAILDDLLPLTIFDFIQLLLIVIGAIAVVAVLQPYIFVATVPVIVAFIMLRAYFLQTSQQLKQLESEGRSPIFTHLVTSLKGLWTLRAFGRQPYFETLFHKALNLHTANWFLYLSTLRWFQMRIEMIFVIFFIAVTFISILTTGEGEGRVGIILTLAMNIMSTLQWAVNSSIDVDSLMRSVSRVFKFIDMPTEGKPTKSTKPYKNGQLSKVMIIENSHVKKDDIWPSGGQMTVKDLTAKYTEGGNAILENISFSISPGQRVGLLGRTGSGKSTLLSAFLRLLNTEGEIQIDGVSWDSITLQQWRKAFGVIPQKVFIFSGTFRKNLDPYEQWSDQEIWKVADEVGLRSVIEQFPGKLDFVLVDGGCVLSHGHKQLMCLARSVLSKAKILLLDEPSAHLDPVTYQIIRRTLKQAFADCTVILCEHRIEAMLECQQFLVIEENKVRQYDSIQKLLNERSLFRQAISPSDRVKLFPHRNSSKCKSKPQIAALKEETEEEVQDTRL

CCCCOC1CCN(c2cc(C(=O)NS(C)(=O)=O)nc3c2c(C(C)C)nn3-c2ccc(F)cc2)CC1 [Compound 172, 4-(4-butoxypiperidin-1-yl)-1-(4-fluorophenyl)-N-(methanesulfonyl)-3-(propan-2-yl)-1H-pyrazolo[3,4-b]pyridine-6-carboxamide]
% Activation (ΔF508-CFTR [1]): 462.4%
EC50 (ΔF508-CFTR [1]): 207 nM
% Activation (ΔF508-CFTR [2]): 280.03%
EC50 (ΔF508-CFTR [2]): 330 nM

COC1(C)CCN(c2cc(C(=O)NS(C)(=O)=O)nc3c2c(C(C)C)nn3-c2ccc(F)cc2)CC1 [Compound 173, 1-(4-fluorophenyl)-N-(methanesulfonyl)-4-(4-methoxy-4-methylpiperidin-1-yl)-3-(propan-2-yl)-1H-pyrazolo[3,4-b]pyridine-6-carboxamide]
% Activation (ΔF508-CFTR [1]): 183.2%
EC50 (ΔF508-CFTR [1]): 433 nM
% Activation (ΔF508-CFTR [2]): 51.395%
EC50 (ΔF508-CFTR [2]): 412 nM

COC1CCN(c2cc(C(=O)NS(=O)(=O)CCNC(=O)c3ccccc3C(=O)O)nc3c2c(C2CCC2)nn3-c2ccccc2)CC1 [Compound 174, 2-[(2-{[3-cyclobutyl-4-(4-methoxypiperidin-1-yl)-1-phenyl-1H-pyrazolo[3,4-b]pyridine-6-carbonyl]sulfamoyl}ethyl)carbamoyl]benzoic acid]
% Activation (ΔF508-CFTR [1]): 545%
EC50 (ΔF508-CFTR [1]): 468 nM
% Activation (ΔF508-CFTR [2]): 347.9%
EC50 (ΔF508-CFTR [2]): 754 nM

CC(C)COC1CCN(c2cc(C(=O)NS(C)(=O)=O)nc3c2c(C(C)C)nn3-c2ccc(F)cc2)CC1 [Compound 175, 1-(4-fluorophenyl)-N-(methanesulfonyl)-4-[4-(2-methylpropoxy)piperidin-1-yl]-3-(propan-2-yl)-1H-pyrazolo[3,4-b]pyridine-6-carboxamide]
% Activation (ΔF508-CFTR [1]): 461.1%
EC50 (ΔF508-CFTR [1]): 200 nM
% Activation (ΔF508-CFTR [2]): 270.5%
EC50 (ΔF508-CFTR [2]): 337 nM

COC1CCN(c2cc(C(=O)NS(=O)(=O)CC(F)(F)F)nc3c2c(C2CCC2)nn3-c2ccccc2)CC1 [Compound 176, 3-cyclobutyl-4-(4-methoxypiperidin-1-yl)-1-phenyl-N-(2,2,2-trifluoroethanesulfonyl)-1H-pyrazolo[3,4-b]pyridine-6-carboxamide]
% Activation (ΔF508-CFTR [1]): 390.43%
EC50 (ΔF508-CFTR [1]): 209 nM
% Activation (ΔF508-CFTR [2]): 190.4%
EC50 (ΔF508-CFTR [2]): 337 nM

CC(C)c1nn(-c2ccc(F)cc2)c2nc(C(=O)NS(C)(=O)=O)cc(N3CCCC(C(F)F)C3)c12 (stereo not drawn) [Compound 178, 4-[3-(difluoromethyl)piperidin-1-yl]-1-(4-fluorophenyl)-N-(methanesulfonyl)-3-(propan-2-yl)-1H-pyrazolo[3,4-b]pyridine-6-carboxamide]
% Activation (ΔF508-CFTR [1]): 381.73%
EC50 (ΔF508-CFTR [1]): 232 nM
% Activation (ΔF508-CFTR [2]): 202.8%
EC50 (ΔF508-CFTR [2]): 347 nM

CC(C)c1nn(-c2ccc(F)cc2)c2nc(C(=O)NS(C)(=O)=O)cc(N3CC4(CCCOC4)C3)c12 [Compound 179, 1-(4-fluorophenyl)-N-(methanesulfonyl)-4-(6-oxa-2-azaspiro[3.5]nonan-2-yl)-3-(propan-2-yl)-1H-pyrazolo[3,4-b]pyridine-6-carboxamide]
% Activation (ΔF508-CFTR [1]): 248.85%
EC50 (ΔF508-CFTR [1]): 406 nM
% Activation (ΔF508-CFTR [2]): 89.165%
EC50 (ΔF508-CFTR [2]): 879 nM

CC(C)c1nn(-c2ccc(F)cc2)c2nc(C(=O)NS(C)(=O)=O)cc(N3CCC4(CCCO4)CC3)c12 [Compound 180, 1-(4-fluorophenyl)-N-(methanesulfonyl)-4-(1-oxa-8-azaspiro[4.5]decan-8-yl)-3-(propan-2-yl)-1H-pyrazolo[3,4-b]pyridine-6-carboxamide]
% Activation (ΔF508-CFTR [1]): 290.53%
EC50 (ΔF508-CFTR [1]): 300 nM
% Activation (ΔF508-CFTR [2]): 129.5%
EC50 (ΔF508-CFTR [2]): 570 nM

CS(=O)(=O)NC(=O)c1cc(OCC2CCCCC2)c2c(C3CCC3)nn(-c3ccccc3)c2n1 [Compound 181, 3-cyclobutyl-4-(cyclohexylmethoxy)-N-(methanesulfonyl)-1-phenyl-1H-pyrazolo[3,4-b]pyridine-6-carboxamide]
% Activation (ΔF508-CFTR [1]): 357.93%
EC50 (ΔF508-CFTR [1]): 435 nM
% Activation (ΔF508-CFTR [2]): 137.73%
EC50 (ΔF508-CFTR [2]): 398 nM

COCCC1CCN(c2cc(C(=O)NS(C)(=O)=O)nc3c2c(C2CCC2)nn3-c2ccccc2)CC1 [Compound 183, 3-cyclobutyl-N-(methanesulfonyl)-4-[4-(2-methoxyethyl)piperidin-1-yl]-1-phenyl-1H-pyrazolo[3,4-b]pyridine-6-carboxamide]
% Activation (ΔF508-CFTR [1]): 498.57%
EC50 (ΔF508-CFTR [1]): 214 nM
% Activation (ΔF508-CFTR [2]): 302%
EC50 (ΔF508-CFTR [2]): 389 nM

CS(=O)(=O)NC(=O)c1cc(N2CC3(CCCC3)C2)c2c(C3CCC3)nn(-c3ccccc3)c2n1 [Compound 184, 4-(2-azaspiro[3.4]octan-2-yl)-3-cyclobutyl-N-(methanesulfonyl)-1-phenyl-1H-pyrazolo[3,4-b]pyridine-6-carboxamide]
% Activation (ΔF508-CFTR [1]): 282.7%
EC50 (ΔF508-CFTR [1]): 574 nM
% Activation (ΔF508-CFTR [2]): 95.405%
EC50 (ΔF508-CFTR [2]): 719 nM

CS(=O)(=O)NC(=O)c1cc(N2CC3CC3C2)c2c(C3CCC3)nn(-c3ccccc3)c2n1 (stereo not drawn) [Compound 186, 4-(3-azabicyclo[3.1.0]hexan-3-yl)-3-cyclobutyl-N-(methanesulfonyl)-1-phenyl-1H-pyrazolo[3,4-b]pyridine-6-carboxamide]
% Activation (ΔF508-CFTR [1]): 381.87%
EC50 (ΔF508-CFTR [1]): 531 nM
% Activation (ΔF508-CFTR [2]): 209.57%
EC50 (ΔF508-CFTR [2]): 616 nM

CS(=O)(=O)NC(=O)c1cc(-c2ccc(N3CCC(C#N)CC3)nc2)c2c(C3CCC3)nn(-c3ccnc(N4CCCC4)c3)c2n1 [Compound 189, 4-[6-(4-cyanopiperidin-1-yl)pyridin-3-yl]-3-cyclobutyl-N-(methanesulfonyl)-1-[2-(pyrrolidin-1-yl)pyridin-4-yl]-1H-pyrazolo[3,4-b]pyridine-6-carboxamide]
% Activation (ΔF508-CFTR [1]): 409.6%
EC50 (ΔF508-CFTR [1]): 236 nM
% Activation (ΔF508-CFTR [2]): 236.2%
EC50 (ΔF508-CFTR [2]): 421 nM

CS(=O)(=O)NC(=O)c1cc(N2CC3(CCCCC3)C2)c2c(C3CCC3)nn(-c3ccccc3)c2n1 [Compound 192, 4-(2-azaspiro[3.5]nonan-2-yl)-3-cyclobutyl-N-(methanesulfonyl)-1-phenyl-1H-pyrazolo[3,4-b]pyridine-6-carboxamide]
% Activation (ΔF508-CFTR [1]): 254.6%
EC50 (ΔF508-CFTR [1]): 866 nM
% Activation (ΔF508-CFTR [2]): 81.49%
EC50 (ΔF508-CFTR [2]): 1140 nM

CO[C@H]1C[C@@H](c2nn(-c3ccccc3)c3nc(C(=O)NS(C)(=O)=O)cc(-c4ccc(N5CCC(C#N)CC5)nc4)c32)C1 [Compound 194, 4-[6-(4-cyanopiperidin-1-yl)pyridin-3-yl]-N-(methanesulfonyl)-3-(cis-3-methoxycyclobutyl)-1-phenyl-1H-pyrazolo[3,4-b]pyridine-6-carboxamide]
% Activation (ΔF508-CFTR [1]): 427.45%
EC50 (ΔF508-CFTR [1]): 371 nM
% Activation (ΔF508-CFTR [2]): 213.75%
EC50 (ΔF508-CFTR [2]): 745 nM

CS(=O)(=O)NC(=O)c1cc(-c2ccc(N3CCC(C#N)CC3)nc2)c2c(C3CC(F)(F)C3)nn(-c3ccccc3)c2n1 [Compound 195, 4-[6-(4-cyanopiperidin-1-yl)pyridin-3-yl]-3-(3,3-difluorocyclobutyl)-N-(methanesulfonyl)-1-phenyl-1H-pyrazolo[3,4-b]pyridine-6-carboxamide]
% Activation (ΔF508-CFTR [1]): 387.47%
EC50 (ΔF508-CFTR [1]): 192 nM
% Activation (ΔF508-CFTR [2]): 225.2%
EC50 (ΔF508-CFTR [2]): 370 nM

CC1(C)CC(c2nn(-c3ccccc3)c3nc(C(=O)NS(C)(=O)=O)cc(-c4ccc(N5CCC(C#N)CC5)nc4)c23)C1 [Compound 196, 4-[6-(4-cyanopiperidin-1-yl)pyridin-3-yl]-3-(3,3-dimethylcyclobutyl)-N-(methanesulfonyl)-1-phenyl-1H-pyrazolo[3,4-b]pyridine-6-carboxamide]
% Activation (ΔF508-CFTR [1]): 387.1%
EC50 (ΔF508-CFTR [1]): 231 nM
% Activation (ΔF508-CFTR [2]): 188.47%
EC50 (ΔF508-CFTR [2]): 339 nM

CS(=O)(=O)NC(=O)c1cc(-c2ccc(N3CCC(C#N)CC3)nc2)c2c(C3CC(F)C3)nn(-c3ccccc3)c2n1 (stereo not drawn) [Compound 197, 4-[6-(4-cyanopiperidin-1-yl)pyridin-3-yl]-3-(3-fluorocyclobutyl)-N-(methanesulfonyl)-1-phenyl-1H-pyrazolo[3,4-b]pyridine-6-carboxamide]
% Activation (ΔF508-CFTR [1]): 390.8%
EC50 (ΔF508-CFTR [1]): 194 nM
% Activation (ΔF508-CFTR [2]): 220.2%
EC50 (ΔF508-CFTR [2]): 397 nM

CS(=O)(=O)NC(=O)c1cc(N2CCC3(C2)CC3(F)F)c2c(C3CCC3)nn(-c3ccccc3)c2n1 (stereo not drawn) [Compound 202, 3-cyclobutyl-4-(1,1-difluoro-5-azaspiro[2.4]heptan-5-yl)-N-(methanesulfonyl)-1-phenyl-1H-pyrazolo[3,4-b]pyridine-6-carboxamide]
% Activation (ΔF508-CFTR [1]): 299.4%
EC50 (ΔF508-CFTR [1]): 255 nM
% Activation (ΔF508-CFTR [2]): 147.23%
EC50 (ΔF508-CFTR [2]): 595 nM

CS(=O)(=O)NC(=O)c1cc(N2CC3(CCCCO3)C2)c2c(C3CCC3)nn(-c3ccccc3)c2n1 [Compound 203, 3-cyclobutyl-N-(methanesulfonyl)-4-(5-oxa-2-azaspiro[3.5]nonan-2-yl)-1-phenyl-1H-pyrazolo[3,4-b]pyridine-6-carboxamide]
% Activation (ΔF508-CFTR [1]): 224.63%
EC50 (ΔF508-CFTR [1]): 328 nM
% Activation (ΔF508-CFTR [2]): 82.59%
EC50 (ΔF508-CFTR [2]): 1020 nM

CS(=O)(=O)NC(=O)c1cc(N2CC3(CCOCC3)C2)c2c(C3CCC3)nn(-c3ccccc3)c2n1 [Compound 204, 3-cyclobutyl-N-(methanesulfonyl)-4-(7-oxa-2-azaspiro[3.5]nonan-2-yl)-1-phenyl-1H-pyrazolo[3,4-b]pyridine-6-carboxamide]
% Activation (ΔF508-CFTR [1]): 288.6%
EC50 (ΔF508-CFTR [1]): 490 nM
% Activation (ΔF508-CFTR [2]): 117.6%
EC50 (ΔF508-CFTR [2]): 978 nM
